Experimental data: ChEMBL document CHEMBL1129273, “Structural modifications of thalidomide produce analogs with enhanced tumor necrosis factor inhibitory activity” (J Med Chem, 1996)

Assays:
Tumor necrosis factor [1] = molecular target: T1, Tumor necrosis factor (Homo sapiens, UniProt P01375); experiment: Inhibition of TNF-alpha production in LPS stimulated human PBMCs; format: functional
Tumor necrosis factor [2] = molecular target: T1, Tumor necrosis factor; experiment: Inhibitory activity of TNF-alpha was measured in the supernatant of human PBMCs stimulated with LPS.; format: functional

T1 sequence (P01375 whole entry): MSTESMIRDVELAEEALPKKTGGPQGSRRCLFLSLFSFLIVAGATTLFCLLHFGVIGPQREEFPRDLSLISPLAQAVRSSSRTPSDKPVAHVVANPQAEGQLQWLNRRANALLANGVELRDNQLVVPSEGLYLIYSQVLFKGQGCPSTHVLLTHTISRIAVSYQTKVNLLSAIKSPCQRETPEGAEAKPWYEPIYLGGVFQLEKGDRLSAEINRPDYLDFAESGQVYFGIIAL

| Compound | IC50 (Tumor necrosis factor [1]) | IC50 (Tumor necrosis factor [2]) |
| --- | --- | --- |
| COc1ccc(C(CC(=O)O)N2C(=O)c3ccccc3C2=O)cc1OC (stereo unspecified) | 60 µM |  |
| COC(=O)CC(c1ccc(OC)c(OC)c1)N1C(=O)c2cc3ccccc3cc2C1=O (stereo unspecified) | 4.7 µM |  |
| COc1ccc(C(CC(N)=O)N2C(=O)c3ccccc3C2=O)cc1OC (stereo unspecified) | 12 µM |  |
| COc1ccc(C(CC(N)=O)N2C(=O)c3ccccc3C2=O)cc1 (stereo unspecified) | 62 µM |  |
| COC(=O)CC(c1ccc(OC)c(OC)c1)N1C(=O)c2ccc(N)cc2C1=O (stereo unspecified) | 0.38 µM |  |
| NC(=O)CC(c1ccc2ccccc2c1)N1C(=O)c2ccccc2C1=O (stereo unspecified) | 51 µM |  |
| COC(=O)CC(c1ccc(OC)c(OC)c1)N1C(=O)c2cc(Cl)c(Cl)cc2C1=O (stereo unspecified) |  | 13 µM |
| COC(=O)CC(c1ccc(OC)c(OC)c1)N1C(=O)c2c(Cl)ccc(Cl)c2C1=O (stereo unspecified) |  | 7.9 µM |
| COc1cccc(C(CC(N)=O)N2C(=O)c3ccccc3C2=O)c1 (stereo unspecified) | 120 µM |  |
| CCOc1ccc(C(CC(N)=O)N2C(=O)c3ccccc3C2=O)cc1OCC (stereo unspecified) | 5.6 µM |  |
| COC(=O)CC(c1ccc(OC)c(OC)c1)N1C(=O)c2ccc([N+](=O)[O-])cc2C1=O (stereo unspecified) |  | 34 µM |
| COC(=O)CC(c1ccc(OC)c(OC)c1)N1C(=O)c2cccc([N+](=O)[O-])c2C1=O (stereo unspecified) |  | 64 µM |
| COc1cc(OC)cc(C(CC(N)=O)N2C(=O)c3ccccc3C2=O)c1 (stereo unspecified) | 39 µM |  |
| CCCOc1ccc(C(CC(N)=O)N2C(=O)c3ccccc3C2=O)cc1OCCC (stereo unspecified) | 55 µM |  |
| COC(=O)CC(c1ccc(OC)c(OC)c1)N1C(=O)c2ccccc2C1=O (stereo unspecified) | 2.9 µM |  |
| COc1ccc(C(CCO)N2C(=O)c3ccccc3C2=O)cc1OC (stereo unspecified) | 7.5 µM |  |
| CNC(=O)CC(c1ccc(OC)c(OC)c1)N1C(=O)c2ccccc2C1=O (stereo unspecified) | 12 µM |  |
| COC(=O)CC(c1ccc(OC)c(OC)c1)N1C(=O)c2cccc(N)c2C1=O (stereo unspecified) | 0.45 µM |  |
| COC(=O)CC(c1ccc(OC)c(OC)c1)N1C(=O)c2ccc(C(C)(C)C)cc2C1=O (stereo unspecified) | 4.2 µM |  |
| COC(=O)CC(c1ccc(OC)c(OC)c1)N1C(=O)c2cccc(O)c2C1=O (stereo unspecified) | 15 µM |  |
| N#Cc1cccc(C(CC(N)=O)N2C(=O)c3ccccc3C2=O)c1 (stereo unspecified) | 89 µM |  |
| CCNC(=O)CC(c1ccc(OC)c(OC)c1)N1C(=O)c2ccccc2C1=O (stereo unspecified) | 53 µM |  |
| COc1ccc(C(CC(=O)NCc2ccccc2)N2C(=O)c3ccccc3C2=O)cc1OC (stereo unspecified) | 84 µM |  |
| NC(=O)CC(c1ccc(Cl)c(Cl)c1)N1C(=O)c2ccccc2C1=O (stereo unspecified) | 70 µM |  |
| N#Cc1ccc(C(CC(N)=O)N2C(=O)c3ccccc3C2=O)cc1 (stereo unspecified) | 150 µM |  |
| NC(=O)CC(c1ccccc1)N1C(=O)c2ccccc2C1=O (stereo unspecified) | 260 µM |  |
